From US8071540B2, “Virus derived antimicrobial peptides” (priority 2007, dated 2011)
Entries after “also recorded” stand apart in the source; their conditions may differ. Where no end group is shown, it is not given here.

Assays:
[1] = tested on: Pseudomonas aeruginosa; test: Bacterial lysis (broth dilution) assay, MBC; type: cell-based; parameters: MBC, Psuedomonas aeruginosa, 0 mM NaCl / MBC, Psuedomonas aeruginosa, 150 mM NaCl: unit not given here; settings: for P. aeruginosa killing, influence of physiologic NaCl: phosphate buffer with 150 mM NaCl versus low salt; for MBC, Psuedomonas aeruginosa, 0 mM NaCl: 0 mM NaCl (10 mM phosphate buffer); for MBC, Psuedomonas aeruginosa, 0 mM NaCl / MBC, Psuedomonas aeruginosa, 150 mM NaCl: 99.9% killing; for MBC, Psuedomonas aeruginosa, 150 mM NaCl: 150 mM NaCl (physiologic)
[2] = tested on: Methicillin Resistant S. aureus; type: cell-based, Staphylococcus aureus; parameters: unit not given here; settings: 99.9% killing; for MBC, Methicillin Resistant S. aureus, 0 mM NaCl: 0 mM NaCl (10 mM phosphate buffer); for MBC, Methicillin Resistant S. aureus, 150 mM NaCl: 150 mM NaCl (physiologic)
[3] = tested on: Pseudomonas aeruginosa; settings: 1×10^5 colony-forming units; cited from earlier work
[4] = target: Ca^2+ saturated calmodulin (Homo sapiens, UniProt P0DP23); settings: host cell Ca^2+ saturated calmodulin; cited from earlier work
[5] = tested on: diverse gram-negative and -positive bacterial isolates; settings: cited from earlier work
[6] = tested on: Staphylococcus aureus; test: Bacterial lysis (broth dilution) assay, MBC; type: cell-based; settings: for MBC, Staphylococcus aureus, 0 mM NaCl: 0 mM NaCl (10 mM phosphate buffer); for MBC, Staphylococcus aureus, 0 mM NaCl / MBC, Staphylococcus aureus, 150 mM NaCl: 99.9% killing; for MBC, Staphylococcus aureus, 150 mM NaCl: 150 mM NaCl (physiologic)
From the text: The assays for growth inhibition of a microbial target can be used to derive a minimum bactericidal concentration (MBC) value for the peptide, i.e., the concentration of peptide required to kill 99.9% (3-log decrease) of the microbial sample being tested. This value is well known to those in the art as representative of the effectiveness of a particular antimicrobial agent (e.g., an antibiotic) against a particular organism or group of organisms. In assays to detect the MBC of a peptide, growth inhibition of a bacterial population also can be measured with reference to the number of colony forming units (cfu) after exposure to a peptide relative to a control experiment without a peptide.
Bacterial lysis assay. Bacterial lysis assays were conducted in a manner similar to that described previously (Lehrer, R. I., M. E. Selsted, D. Szklarek, and F. J. 1983. Infect. Immun. 42: 10-4, 1983; Miller, M. A., R. F. Garry, J. M. Jaynes, and R. C. Montelaro, AIDS Res Hum Retroviruses 7:511-519, 1991). Bacterial suspensions were cultured in Luria-Bertani Broth to mid-log growth phase and washed by two cycles of centrifugation and suspension in 10 mM phosphate buffer. The Abs600 of the suspension was adjusted with 10 mM phosphate buffer such that, upon dilution, 5-10×10^5 cfu/mL would be treated in the assay. Bacteria were incubated for 1 h with two-fold dilutions of peptides (100 μM to 100 nM) in 96-well plates using 10 mM phosphate buffer, pH 7.2, as a diluent. Ten-fold dilutions of bacteria were performed to 1:1 000; a 100 μl aliquot from each condition was spread on the surface of tryptic soy agar plates (Difco, Detroit, Mich.) which were incubated overnight. Colonies of surviving bacteria (cfu, colony-forming units) were counted and compared to untreated controls to determine the amount of peptide-induced killing under each condition. Log killing is defined as the log of the ratio of cfu present before and after treatment with peptide. The minimal bactericidal concentration, MBC, is the peptide concentration at which 99.9% (three log) killing is achieved (Pearson et al., Antimicrob. Agents Chemother. 18: 699-708, 1980).
Results. Representative gram positive (S. aureus) and gram negative (P. aeruginosa) clinical isolates were used as the index bacteria to survey the peptides described herein.
A limitation of many host-derived antimicrobial peptides is their decreased activity at physiologic (150 mM) NaCl concentration. See Friedrich et al., Antimicrobial Agents and Chemotherapy 43:1542-1548. The peptides WLSA-5 (SEQ ID NO: 3) and LL37 were tested against the two index strains at physiologic NaCl. […] The activity of antimicrobial peptides described herein were compared to an expanded list of clinical bacterial isolates. These are summarized in Table 2 by comparing their MBCs in phosphate buffer alone (low salt) and phosphate buffer containing 150 mM NaCl (physiologic conditions). Inspection of this table would lead one skilled in the art to conclude that the activity of antimicrobial peptides described herein compare favorably to the host derived antimicrobial peptides as it relates to the spectrum and potency of antimicrobial activity.

[7] = tested on: Staphylococcus aureus; settings: 1×10^5 colony-forming units; cited from earlier work
[8] = tested on: Burkholderia cepacia; type: cell-based; settings: standard broth dilution, FIG. 7
[9] = tested on: P. aeruginosa attached to differentiated human bronchial epithelial cells; test: CF cell culture model: killing of bacteria bound to airway epithelial cells; type: cell-based, Pseudomonas aeruginosa; settings: increasing peptide concentration, co-culture, FIG. 9
[10] = tested on: differentiated primary human airway epithelial cells; test: CF cell culture model: transepithelial resistance as peptide toxicity

Substance	MBC, Methicillin Resistant S. aureus, 0 mM NaCl [2]	MBC, Staphylococcus aureus, 0 mM NaCl [6]	MBC, Staphylococcus aureus, 150 mM NaCl [6]	MBC, Psuedomonas aeruginosa, 0 mM NaCl [1]	MBC, Psuedomonas aeruginosa, 150 mM NaCl [1]	MBC, Methicillin Resistant S. aureus, 150 mM NaCl [2]	also measured
LL37: human cathelicidin, 37-amino acid amphiphilic a-helical cationic host derived antimicrobial peptide (LLGDFFRKSKEKIGKEFKRIVQRIKDFLRNLVPRTES; Antibacterial peptide LL-37; UniProt P49913 134-170, looked up) [reference compound]							P. aeruginosa killing, influence of physiologic NaCl [1]: not affected by NaCl inclusion
LLP1: prototypical lentiviral lytic peptide, amino acids 828-856 of the HIV-1 viral isolate HXB2R Env (SEQ ID NO: 19) (RVIEVVQGACRAIRHIPRRIRQGLERIL; Human immunodeficiency virus type 1) [reference compound]	16000	8000 nM	16000 nM	1000	1000		time to nearly sterilize suspension, P. aeruginosa [3]: ≤ 60 s; binding affinity to calmodulin [4]: near nanomolar affinity; antibacterial activity compared with magainin-2 [5]: equal to, or more potent than magainin-2; time to nearly sterilize suspension, S. aureus [7]: ≤ 60 s
RRVVRRVRRVVRRVVRVVRRVVRR [LBU-2]		1500 nM		1500	800		
RRVVRRVRRVVRRVVRVVRRVVRRVRRVVRRVVRVVRRVVRR (RRVVRRVRRVVRRVVRVVRRVVRRVRRVVRRVVRVVRRVVRR; Antimicrobial peptide) [LBU-3.5]	1500	1000 nM	600 nM	400	400	200	
RVIRVVQRACRAIRHIVRRIRQGLRRIL (RVIRVVQRACRAIRHIVRRIRQGLRRIL; Antimicrobial peptide) [SA-5]		1000 nM		1000	1000		
RVVRVVRRVVRRVRRVVRRVVRVVRRVVRRVRRVVRRVVRVVRRVVRR [LBU-4]		800 nM	800 nM	800	400		
RVVRV VRRWV RR (RVVRVVRRWVRR; Antimicrobial peptide) [WLBU-1]	50,000	30,000 nM	10,000 nM	400	2500	50,000	
RVVRVVRRWVRRVRRVWRRVVRVVRRWVRRVRRVWRRVVRVVRRWRVV (RVVRVVRRWVRRVRRVWRRVVRVVRRWVRRVRRVWRRVVRVVRRWRVV; Antimicrobial peptide) [WLBU-4]	1500	3,000 nM	600 nM	1500	400	200	
RWIRVVQRWCRAIRHIWRRIRQGLRRWLRVV [WLSA-5, RWIRVVQRWCRAIRHIWRRIRQGLRRWLRVV]	150	1000 nM	1000 nM	1000	1000		activity against B. cepacia clinical isolate [8]: significantly more active than LSA-5; viability of bacteria bound to epithelial cells [9]: decrease in bacterial viability; S. aureus killing, influence of physiologic NaCl ([6]; phosphate buffer with 150 mM NaCl versus low salt): not influenced by NaCl in the same way as LL37; also recorded: maintained its activity in low and physiologic salt conditions; change in transepithelial resistance ([10]; at a decrease in bacterial counts by two orders of magnitude): less than 50%; effect on trans-epithelial resistance ([10]; compared with LL-37): transient and not significantly different from LL-37; P. aeruginosa killing, influence of physiologic NaCl [1]: not affected by NaCl inclusion; also recorded: maintained its activity in low and physiologic salt conditions
VRRVVRRVVRVVRRVVRRVRRVVRRVVRVV RRVVRR (VRRVVRRVVRVVRRVVRRVRRVVRRVVRVVRRVVRR; Antimicrobial peptide) [LBU-3]		1500 nM	1500 nM	1500	800		
VRRVWRRVVRVVRRWVRRVRRVWRRVVRVV RRWVRR (VRRVWRRVVRVVRRWVRRVRRVWRRVVRVVRRWVRR; Antimicrobial peptide) [WLBU-3]	400	3,000 nM	600 nM	1500	800	100	
